Measurements reported in US6562861B1 (priority 1997, dated 2003).
Where a name gives a salt, the structure may show the parent alone.

How the values were obtained:
[1] = target: neuraminidase from the H1N9 strain of influenza (Influenza A virus, UniProt P03472); experiment: biochemical; conditions: neuraminidase enzyme inhibition data (IC50 values) Flu A
Flu B neuraminidase = Flu B neuraminidase (Influenza B virus, UniProt P03474); experiment: biochemical; conditions: neuraminidase enzyme inhibition data (IC50 values) Flu B
Chain of Flu B neuraminidase (P03474 whole entry): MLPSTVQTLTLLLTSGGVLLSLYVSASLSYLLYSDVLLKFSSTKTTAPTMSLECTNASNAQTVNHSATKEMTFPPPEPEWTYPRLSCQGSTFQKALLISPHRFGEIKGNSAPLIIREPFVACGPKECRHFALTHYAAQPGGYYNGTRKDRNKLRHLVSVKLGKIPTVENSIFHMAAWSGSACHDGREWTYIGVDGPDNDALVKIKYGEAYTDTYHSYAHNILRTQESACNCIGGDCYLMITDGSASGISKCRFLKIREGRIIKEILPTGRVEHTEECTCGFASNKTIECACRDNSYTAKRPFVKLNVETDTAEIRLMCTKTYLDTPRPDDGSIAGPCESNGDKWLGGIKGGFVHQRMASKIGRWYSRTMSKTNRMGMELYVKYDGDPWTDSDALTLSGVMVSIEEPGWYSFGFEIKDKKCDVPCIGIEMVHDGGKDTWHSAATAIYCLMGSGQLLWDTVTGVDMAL

Chain of neuraminidase from the H1N9 strain of influenza (P03472 83-470 limits assumed): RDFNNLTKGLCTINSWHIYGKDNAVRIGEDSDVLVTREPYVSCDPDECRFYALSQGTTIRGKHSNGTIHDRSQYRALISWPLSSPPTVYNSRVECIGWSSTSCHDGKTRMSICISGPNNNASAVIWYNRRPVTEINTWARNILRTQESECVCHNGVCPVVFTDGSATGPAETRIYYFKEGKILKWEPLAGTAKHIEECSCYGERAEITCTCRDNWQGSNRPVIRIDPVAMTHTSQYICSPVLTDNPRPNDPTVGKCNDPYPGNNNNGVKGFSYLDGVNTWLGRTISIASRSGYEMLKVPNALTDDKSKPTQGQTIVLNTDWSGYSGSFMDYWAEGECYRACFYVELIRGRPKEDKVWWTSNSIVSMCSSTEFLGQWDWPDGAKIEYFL

SMILES | IC50 [1] | IC50 (Flu B neuraminidase)
CCC(CC)C(NC(C)=O)C1CC(C(=O)O)CC1O (single isomer, unassigned) [Compound 65, (±) t-3-(1′-Acetylamino-2′-ethyl)butyl-t-4-hydroxycyclopentan-r-1-carboxylic Acid] | 1000 to 100000 nM | 1000 to 100000 nM
CCC(CC)C(NC(C)=O)[C@@H]1[C@H](O)[C@@H](C(=O)O)C[C@H]1NC(=N)NC (stereo partly drawn) [Compound 182, (1S,2S,3R,4R,1′S)-(−)-3-(1′-Acetylamino-2′-ethyl)butyl-4-[(N-methylamino-imino)methyl]amino-2-hydroxycyclopentan-1-carboxylic Acid] | < 1000 nM | < 1000 nM
CCC(CC)C(NC(C)=O)[C@@H]1[C@H](O)[C@@H](C(=O)O)C[C@H]1N (stereo partly drawn) [Compound 160, (1S,2S,3R,4R,1′S)-(−)-3-(1′-Acetylamino-2′-ethyl)butyl-4-amino-2-hydroxycyclopentan-1-carboxylic Acid] | < 1000 nM | < 1000 nM
CCCCC(NC(C)=O)C1C(N)CC(C(=O)O)C1O (single isomer, unassigned) [Compound 165] | 1000 to 100000 nM | 1000 to 100000 nM
CCC(CC)C(NC(C)=O)C1C(NC(=N)N)CC(C(=O)O)C1O (single isomer, unassigned) [Compound 179, (±)-t-3-(1′-Acetylamino-2′-ethyl)butyl-c-4-[(amino-imino)methyl]amino-t-2-hydroxycyclopentan-r-1-carboxylic Acid] | < 1000 nM | 
CCC(CC)C(NC(C)=O)[C@@H]1[C@H](O)[C@@H](C(=O)O)C[C@H]1NC(=N)N (stereo partly drawn) [Compound 178, (1S,2S,3R,4R,1′S)-(−)-3-(1′-Acetylamino-2′-ethyl)butyl-4-[(aminoimino)methyl]amino-2-hydroxycyclopentan-1-carboxylic Acid] | < 1000 nM | 
CCC(CC)C(NC(C)=O)[C@@H]1C=C(C(=O)O)C[C@H]1NC(=N)N (stereo partly drawn) [Compound 219, (3R,4R,1′S)-(−)-3-(1′-Acetylamino-2′-ethyl)butyl-4-[(amino-imino)methyl]amino-cyclopent-1-en-1-carboxylic Acid Hydrochloride] | < 1000 nM | < 1000 nM
CCC(C)C(NC(C)=O)C1C(N)CC(C(=O)O)C1O (single isomer, unassigned) [Compound 166, (±)-t-3-(1′-Acetylamino-2′-methyl)butyl-c-4-amino-t-2-hydroxycyclopentan-r-1-carboxylic Acid] | < 1000 nM | 1000 to 100000 nM
CCC(CC)C(NC(C)=O)C1CC(C(=O)O)CC1N (single isomer, unassigned) [Compound 200, (±)-t-3-(1′-Acetylamino-2′-ethyl)butyl-c-4-aminocyclopentan-1-carboxylic Acid] | < 1000 nM | < 1000 nM
CCC(CC)C(NC(C)=O)[C@@H]1C[C@@H](C(=O)O)C[C@H]1NC(=N)NC (stereo partly drawn) [Compound 212, (1R,3R,4R,1′S)-(−)-3-(1′-Acetylamino-2′-ethyl)butyl-4-[(N-methylamino-imino)methyl]aminoclopentan-1-carboxylic Acid] | < 1000 nM | < 1000 nM
CCC(CC)CC(NC(C)=O)C1C(NC(=N)N)CC(C(=O)O)C1O (single isomer, unassigned) [Compound 180, (±)-t-3-(1′-Acetylamino-3′-ethyl)pentyl-c-4-[(amino-imino)methyl]amino-t-2-hydroxycyclopentan-r-1-carboxylic Acid] | < 1000 nM | < 1000 nM
CCCC(CCC)C(NC(C)=O)C1C(N)CC(C(=O)O)C1O (single isomer, unassigned) [Compound 163, (±)-t-3-(1′-Acetylamino-2′-propyl)pentyl-c-4-amino-t-2-hydroxycyclopentan-r-1-carboxylic Acid] | < 1000 nM | < 1000 nM
CCCC(CCC)C(NC(C)=O)[C@@H]1[C@H](O)[C@@H](C(=O)O)C[C@H]1NC(=N)N (stereo partly drawn) [Compound 183, (1S,2S,3R,4R,1′S)-(−)-3-(1′-Acetylamino-2′-propyl)pentyl-4-[(amino-imino)methyl]amino-2-hydroxycyclopentan-1-carboxylic Acid] | < 1000 nM | < 1000 nM
CCC(CC)C(NC(C)=O)C1C(N)CC(C(=O)O)C1O (single isomer, unassigned) [Compound 162, (±)-t-3-(1′-Acetylamino-2′-ethyl)butyl-c-4-amino-t-2-hydroxycyclopentan-r-1-carboxylic Acid] | < 1000 nM | < 1000 nM
CCC(CC)C(NC(C)=O)C1CC(C(=O)O)CC1NC(=N)N (single isomer, unassigned) [Compound 211, (±)-t-3-(1′-Acetylamino-2′-ethyl)butyl-c-4-[(amino-imino)methyl]-aminocyclopentan-r-1-carboxylic Acid] | < 1000 nM | 
CCCC(CCC)C(NC(C)=O)[C@@H]1C[C@@H](C(=O)O)C[C@H]1NC(=N)N (stereo partly drawn) [Compound 210, (1R,3R,4R,1′S)-(−)-3-(1′-Acetylamino-2′-propyl)pentyl-4-[(amino-imino)methyl]aminocyclopentan-1-carboxylic Acid] | < 1000 nM | < 1000 nM
CCC(CC)C(NC(C)=O)[C@@H]1C[C@@H](C(=O)O)C[C@H]1NC(=N)N (stereo partly drawn) [Compound 209, (1R,3R,4R,1′S)-(−)-3-(1′-Acetylamino-2′-ethyl)butyl-4-(aminoimino)methyl-aminocyclopentan-1-carboxylic Acid] | < 1000 nM | 
CCCCC(NC(C)=O)C1C(NC(=N)N)CC(C(=O)O)C1O (single isomer, unassigned) [Compound 181] | < 1000 nM | < 1000 nM
CCC(CC)C(NC(C)=O)[C@@H]1C[C@@H](C(=O)O)C[C@H]1N (stereo partly drawn) [Compound 199, (1R,3R,4R,1′S)-(−)-3-(1′-Acetylamino-2′-ethyl)butyl-4-aminocyclopentan-1-carboxylic Acid] | < 1000 nM | < 1000 nM
CCC(CC)C(NC(C)=O)C1CC(C(=O)O)CC1N (single isomer, unassigned) [Compound 86, (±) t-3-[(1′-Acetylamino-2′-ethyl)butyl]-c-4-aminocyclopentan-r-1-carboxylic Acid] | 1000 to 100000 nM | 1000 to 100000 nM
